Data as given in article PMC9618981, “Impact of peptide permeation enhancer on tight junctions opening cellular mechanisms” (Biochemistry and Biophysics Reports, 2022).
Blank lines part the entries; values can stand above or below the molecule they belong to. Ends that are not written are not given here. Peptide text beside a SMILES is read from it. * marks the point of attachment. Myristoyl = CCCCCCCCCCCCCC(=O)*

Assays:
[1] = test system: occludin expression in Caco-2 cells; assay: Immunoblot of total protein extracts from Caco-2 cells, occludin; format: cell-based, human; conditions: Caco-2, 1 h, peptides 50 μM, In 10 μM
Procedure: (§1) Caco-2 cells (ATCC, Manassas, VA, USA) were cultured in T75 flasks (Merck, Schaffhausen, Switzerland). The cells were incubated at 37 °C and a humidified atmosphere containing 5% of CO2. The medium containing 10% fetal bovine serum (FBS, Thermofisher, Waltham, MA, USA) was changed every 2–3 days. The Caco-2 cells were passaged every 5 days. The passage numbers were between 33 and 36.
(§2) For Western blot experiments, cells were seeded in 12-well plates (Merck, Schaffhausen, Switzerland) at a density of 50′000 cells/cm^2. For the proteomic experiments, the cells were seeded in T10 flasks (Merck, Schaffhausen, Switzerland) at the same initial seeding density. After 7 days and two washes with warm phosphate buffered saline (PBS, Thermofisher, Waltham, MA, USA), the conditions were applied for 1 h. Peptides were applied at a concentration between 20 and 100 μM. A chemical inhibitor of PKC ζ was also tested. The molecule 4f was used at a concentration of 10 μM in 0.1% DMSO as a positive control. […]
(§3) 50 μg cell extracts and p-threonine proteins were separated by SDS-polyacrylamide gel electrophoresis (4–15%) (Bio-Rad, Hercules, CA, USA) and transferred to nitrocellulose membrane. […] These primary antibodies were then recognized by anti-mouse and anti-rabbit antibodies (Li-Cor Biosciences, Lincoln, NE, USA) and detected by Odyssey® imaging system (Li-Cor Biosciences). […]

[2] = test system: ZO-1 expression in Caco-2 cells; assay: Immunoblot of total protein extracts from Caco-2 cells, ZO-1; format: cell-based, human; conditions: Caco-2, 1 h, peptides 50 μM, In 10 μM, normalised to actin
Procedure: as §1, §2, §3

Caco-2 cells = assay: Quantitative proteomic analysis (DIA LC-MS/MS) of Caco-2 cells; format: cell-based, human; conditions: Caco-2, 1 h
Procedure: For Western blot experiments, cells were seeded in 12-well plates (Merck, Schaffhausen, Switzerland) at a density of 50′000 cells/cm^2. For the proteomic experiments, the cells were seeded in T10 flasks (Merck, Schaffhausen, Switzerland) at the same initial seeding density. After 7 days and two washes with warm phosphate buffered saline (PBS, Thermofisher, Waltham, MA, USA), the conditions were applied for 1 h. Peptides were applied at a concentration between 20 and 100 μM. A chemical inhibitor of PKC ζ was also tested. The molecule 4f was used at a concentration of 10 μM in 0.1% DMSO as a positive control. All dilutions were done in 0.9% saline solution. After incubation, cells for Western blot experiments were lysed with RIPA buffer (Cell signalling, Danvers, MA, USA) containing protease and phosphatase inhibitors (Roche, Basel, Switzerland). After centrifugation to discard cell components, the samples were stored at −20 °C. Cells for proteomic analysis were detached with trypsin, washed 3 times with PBS and kept at −80 °C until analysis. Samples for proteomic analysis were produced in triplicate for each condition.
Cell pellets were resuspended in 100 μL of 0.1% RapiGest Surfactant (Waters, Milford, MA, USA) in 50 mM ammonium bicarbonate (AB). Samples were heated for 5 min at 100 °C. Lysis was performed by sonication (6 × 30 s) at 70% amplitude and 0.5 pulse. Samples were kept 30 s on ice between each cycle of sonication. Samples were centrifuged for 10 min at 14′000×g. Protein concentration was measured by Bradford assay and 25 μg of each sample was subjected to protein digestion as follows: the sample volume was adjusted to 100 μL with 0.1% RapiGest in 50 mM AB. 2 μL of 50 mM dithioerythritol (DTE) were added and the reduction was carried out at 60 °C for 1h. Alkylation was performed by adding 2 μL of iodoacetamide 400 mM during 1 h at room temperature in the dark. Overnight digestion was performed at 37 °C with 5 μL of freshly prepared trypsin (Promega AG, Dübendorf, Switzerland) in 50 mM AB at a concentration of 0.2 μg/μL. To remove RapiGest, samples were acidified with trifluoroacetic acid (TFA), heated at 37 °C for 45 min and centrifuged 10 min at 17′000×g. Supernatants were then desalted with a C18 microspin column (Harvard Apparatus, Holliston, MA, USA) according to the manufacturer's instructions, completely dried under speed-vacuum and stored at −20 °C.
Samples were diluted at 1 μg/μL with loading buffer (5% CH3CN, 0.1% FA). Biognosys iRT peptides were added to each sample and 2 μg of peptides were injected onto the column. LC-ESI-MS/MS was performed on an Orbitrap Fusion Lumos Tribrid mass spectrometer (Thermo Scientific, San Jose, CA, USA) equipped with an Easy nLC1200 liquid chromatography system (Thermo Scientific, San Jose, CA, USA). Peptides were trapped on an Acclaim pepmap100, C18, 3 μm, 75 μm × 20 mm nano trap-column (Thermofisher) and separated on a 75 μm × 500 mm, C18 ReproSil-Pur (Dr. Maisch GmbH, Ammerbuch, Germany), 1.9 μm, 100 Å, custom-made column. The analytical separation was run for 135 min using a gradient of H2O/FA 99.9%/0.1% (solvent A) and CH3CN/H2O/FA 80.0%/19.9%/0.1% (solvent B). The gradient was run from 8% B to 28% B in 110 min, then to 42% B in 25 min, then to 95%B in 5 min with a final stay of 20 min at 95% B. Flow rate was of 250 nL/min a total run time was of 160 min. Data-Independent Acquisition (DIA) was performed with MS1 full scan at a resolution of 60,000 (FWHM) followed by 30 DIA MS2 scan with fix windows. MS1 was performed in the Orbitrap with an automatic gain control (AGC) target of 1 × 10^6, a maximum injection time of 50 ms and a scan range from 400 to 1240 m/z. DIA MS2 was performed in the Orbitrap using higher-energy collisional dissociation (HCD) at 30%. Isolation window was set to 28 m/z with an AGC target of 1 × 10^6 and a maximum injection time of 54 ms. […]

[3] = previous studies; cited from earlier work
Excerpt: Previous studies have shown that ZIP is not specifically and competitively inhibiting PKC ζ phosphorylation of some TJ proteins (occludin and ZO-1). The structural similarities of the PS of the PKC family does explain this non-specificity. Therefore, L-R5 would also be competitive with other PKCs and would interfere with most intracellular mechanisms involving PKCs. […] Given the absence o ...

[4] = target: protein kinase C zeta (PKC ζ) (not stated (only the C-terminal fragment is called human)) (UniProt Q05513); assay: MST; PKC ζ labelled by RED-Tris-NTA on its His tag, fixed (20 nM with L-R5 at 0-4000 μM; 30 nM with occludin at 0-35000 nM); ligand in serial dilution; Tris buffer pH 7.4; hydrophilic capillaries; 20%, 40% and 80% MST power
[5] = target: protein kinase C zeta (PKC ζ) (not stated (only the C-terminal fragment is called human)) (UniProt Q05513); assay: MST; labelled PKC ζ fixed at 30 nM; occludin in serial dilution 0-11300 nM; L-R5 present as competitor at a fixed 1.25 mM; Tris buffer pH 7.4; hydrophilic capillaries
occludin = target: T1, occludin (UniProt Q16625 1-522); assay: MST; occludin labelled by RED-Tris-NTA on its His tag, fixed at 50 nM; L-R5 in serial dilution 0-25000 μM; Tris buffer pH 7.4; hydrophilic capillaries; 20%, 40% and 80% MST power; conditions: both partners purified
T1 chain: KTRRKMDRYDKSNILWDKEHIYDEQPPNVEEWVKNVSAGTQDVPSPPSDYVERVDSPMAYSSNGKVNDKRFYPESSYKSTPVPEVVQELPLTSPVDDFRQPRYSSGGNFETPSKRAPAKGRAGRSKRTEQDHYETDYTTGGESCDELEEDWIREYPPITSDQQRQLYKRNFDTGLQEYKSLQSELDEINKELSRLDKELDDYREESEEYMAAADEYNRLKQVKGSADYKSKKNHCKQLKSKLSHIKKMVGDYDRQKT

[6] = target: T2, PKC ζ-occludin interaction (Homo sapiens, UniProt Q16625); assay: Microscale thermophoresis (MST), interaction between PKC ζ and occludin, without and with L-R5 as competitor; format: binding; conditions: labelled PKC ζ 30 nM, occludin as ligand 0-35 μM, no competitor, Tris buffer pH 7.4, n = 2
T2 construct: purchased Eurofins pharma (PKC ζ); occludin source not clearly printed (probably RayBiotech); host or cells: Sf21 insect cells (PKC ζ)
T2 sequence (Q16625 266-522 limits assumed): T1 chain
Procedure: The protein construct of PKC ζ active (recombinant enzyme expressed in Sf21 insect cells) was purchased from Eurofins pharma (Dundee, United Kingdom) and the recombinant human […] was purchased from RayBiotech (Peachtree Corners, GA, USA). Fluorescent labelling of both, PKC ζ and occludin was performed following the protocol of coupling the His-tag labelling kit RED-Tris-NTA 2nd generation (Nanotemper Technologies, Munich, Germany) to their respective histidine tail. The fluorescence of the tagged proteins was then measured with the monolith NT.115 microscale thermophoresis instrument (Nanotemper Technologies, Munich, Germany). An excitation LED of 100% was set for the Cap. Scan. The predicted optimal dilution was then calculated to obtain a final fluorescence signal of 100 Raw fluorescence [counts].
Hydrophilic capillaries were used for the different tests because the samples interacted with standard capillaries. […] The different solutions were analysed by MST at 20%, 40% and 80% MST power with a 100% LED intensity. […] The results and Kd values were analysed by MO.affinity analysis 3 software (Nanotemper Technologies, Munich, Germany).
Microscale thermophoresis is a method used to quantify the affinity between two molecules (e.g., proteins) by increasing the concentration of the ligand while keeping the concentration of the target fixed. […]

Molecule: CC(C)(C)C1=NN(c2cccc(Cl)c2)C(c2ccc(F)c(O)c2)C1 (centres unmarked) [In, 5-(3-(tert-Butyl)-1-(3-chlorophenyl)-4,5-dihydro-1H-pyrazol-5-yl)-2-fluorophenol]
TJ protein expression (occludin and ZO-1, Western blot, Fig. 3) [1]: did not result in a significant decrease | expression of occludin (Western blot) ([1]; normalised to actin): no effect | expression of ZO-1 (Western blot) [2]: no effect | number of downregulated proteins versus control (log 2 (FC) < 0) (Caco-2 cells; L-R5 50 μM or In 10 μM, n = 3): 10 proteins | number of upregulated proteins versus control (log 2 (FC) ≥ 0) (Caco-2 cells; L-R5 50 μM or In 10 μM, n = 3): 6 proteins | number of significantly differentially expressed proteins versus control (Caco-2 cells; L-R5 50 μM or In 10 μM, p ≤ 0.05, n = 3): 16 proteins | expression of E1A binding protein p300 (proteomics) (Caco-2 cells; L-R5 50 μM, In 10 μM, n = 3): significantly decreased | expression of ZO-1 (proteomics) (Caco-2 cells; L-R5 50 μM, In 10 μM, n = 3): no impact | expression of occludin (proteomics) (Caco-2 cells; L-R5 50 μM, In 10 μM, n = 3): no impact

Molecule: CCCCCCCCCCCCCC(=O)N[C@@H](C)C(=O)N[C@@H](CCCNC(=N)N)C(=O)N[C@@H](CCCNC(=N)N)C(=O)N[C@@H](Cc1c[nH]c2ccccc12)C(=O)N[C@@H](CCCNC(=N)N)C(=O)O [L-R5] (Myristoyl-ARRWR-OH)
in vitro cytotoxicity [3]: absence of cytotoxicity

Kd [4]: 617 nM | Kd [5]: 2160 nM
Molecule: occludin (from UniProt Q16625 1-522) (natural protein)

Kd (occludin): 606000 nM
B1: L-R5 (myr-ARRWR), myristoylated pentapeptide (peptide)
peptide: Myristoyl-ARRWR
notes: also called L-R5 peptide; source: synthetic peptide, obtained from Bachem AG

Kd [6]: 617 nM
B2: occludin: tight junction protein, His-tagged recombinant, used as ligand and as labelled target in MST (protein, UniProt Q16625 1-522, looked up)
Occludin: MSSRPLESPPPYRPDEFKPNHYAPSNDIYGGEMHVRPMLSQPAYSFYPEDEILHFYKWTSPPGVIRILSMLIIVMCIAIFACVASTLAWDRGYGTSLLGGSVGYPYGGSGFGSYGSGYGYGYGYGYGYGGYTDPRAAKGFMLAMAAFCFIAALVIFVTSVIRSEMSRTRRYYLSVIIVSAILGIMVFIATIVYIMGVNPTAQSSGSLYGSQIYALCNQFYTPAATGLYVDQYLYHYCVVDPQEAIAIVLGFMIIVAFALIIFFAVKTRRKMDRYDKSNILWDKEHIYDEQPPNVEEWVKNVSAGTQDVPSPPSDYVERVDSPMAYSSNGKVNDKRFYPESSYKSTPVPEVVQELPLTSPVDDFRQPRYSSGGNFETPSKRAPAKGRAGRSKRTEQDHYETDYTTGGESCDELEEDWIREYPPITSDQQRQLYKRNFDTGLQEYKSLQSELDEINKELSRLDKELDDYREESEEYMAAADEYNRLKQVKGSADYKSKKNHCKQLKSKLSHIKKMVGDYDRQKT
modifications: His tag
notes: tight junction protein, His-tagged recombinant, used as ligand and as labelled target in MST
